Structures are written as SMILES.

In general, EC50 refers to the concentration giving half of the maximal effect.

The test system of experiment [1] is MDA-MB-231, MCF7, MCF-10A. The experiment is described as follows: Cytotoxicity relative to ipomoeassin F across the cell lines of Table 1. It counts as cell-based, human. Particulars: depending on the cell type (Table 1). How it is done:
Two human breast cancer cell lines (MDA-MB-231 and MCF7) and one human breast non-tumorigenic epithelial cell line (MCF-10A) were maintained in a DMEM high glucose culture medium supplemented with 10% fetal bovine serum (FBS) and 2 mM L-glutamine. The cells were grown in a humidified atmosphere of 5% CO2 and 95% air at 37 °C . The culture medi um w as changed every 2–4 days depending on cell density. Cell cultures were passaged once a week using 0.125% trypsin-EDTA to detach the cells from culture flasks/dishes.
The human colorectal cancer cell line HCT116 was maintained in McCoy’s 5A (modified) medium supplemented with 10% fetal bovine serum (FBS). […]
Viable cells were counted with a hemocytometer immediately before each experiment. […] Absorbance of formazan was detected by a microplate reader (BioTek Synergy H1) at 570 nm with 650 nm as the reference wavelength. The percentage of viability compared to the negative control (DMSO-treated cells) was determined . […]
MDA-MB-231, MCF-10A and HCT116. Viable cells were counted with a hemocytometer immediately before each experiment . […] Emission of each well at 620 nm was detected by a microplate reader (BioTek Synergy H1) at excitation 580 nm. […] Cells were treated for 96 h, then viability measured with AlamarBlue, detected using the conditions described but with a BMG Fluostar Optima Microplate Reader. […]

Experiment [2] has as its system GLuc secretion in SH-SY5Y cells. Description: SH-SY5Y GLuc secretion assay. The format is cell-based. Conditions: Homo sapiens, read-out: GLuc secretion inhibition EC50.
Experiment [3] concerns secNLuc-ATZ secretion in U2-OS cells. The experiment is described as follows: U2-OS secNLuc-ATZ secretion assay. The format is cell-based. Particulars: Homo sapiens, U2OS, 24 h, read-out: secNLuc-ATZ secretion inhibition EC50. How it is done: The secNLuc-ATZ assay has been described elsewhere.18 Briefly, U2-OS cells stably expressing secNLuc-ATZ were cultured in McCoy’s 5A supplemented with 10% bovine growth serum (Hyclone SH30540.03), 50 units/mL penicillin, and 50 µg/mL streptomycin and plated into 1536-well black, clear-bottom treatment plates (Aurora Microplates #ABI121000A) at 1200 cells/well in 5 µL volume using a Multidrop Combi dispenser (ThermoFisher). Cells were returned to 37 °C for 1 h to adhere and compound or vehicle control was added to wells using a 1536-well pin-tool transfer device (Wako Automation, San Diego). Cells were incubated for 24 h and secNLuc-ATZ-containing media was transferred using an ATS-100 acoustic dispenser (EDC Biosystems, Fremont, CA) from the treatment plate to a white, solid-bottom 1536-well recipient plate (Greiner Bio One #789175-F) containing 3 µL/well of 1X PBS. […]
Cells were incubated at 37 °C for 24 h and secreted luciferase was detected by adding 1 µL of coelenterazine substrate to each well using a BioRAPTR FRD workstation. […]
Luminescence was measured using a ViewLux microplate imager equipped with clear filters.
For cell viability assays, cells were cultured, plated, and treated with test compounds as outlined for the secretion assays. 48 h after treatment, viability was assessed using a CellTiter-Glo assay by adding 3

Turning to `C/C=C(\C)C(=O)O[C@H]1[C@H](OC(=O)/C=C/c2ccc(OCc3cn(CCOCCOCCOCCNC(=O)CCCC[C@@H]4SC[C@@H]5NC(=O)N[C@@H]54)nn3)cc2)[C@@H](O)[C@@H]2O[C@H]3[C@H](O[C@@H](CCCCC)CCCCCCC(=O)CCC(=O)OC[C@H]1O2)O[C@H](C)[C@H](OC(C)=O)[C@@H]3O` [compound 5], in experiment [1], the “decrease in potency versus ipomoeassin F” value is given as about 5 fold. On to `C/C=C(\C)C(=O)O[C@@H]1[C@@H](O)[C@@H]2O[C@H]3[C@H](O[C@@H](CCCCC)CCCCCCC(=O)CCC(=O)OC[C@@H](O2)[C@H]1OC(=O)/C=C/c1ccccc1)O[C@H](C)[C@H](OC(C)=O)[C@@H]3O` [ipomoeassin F], for which the EC50 is about 120 nM in experiment [2] and about 5 nM in experiment [3].

Values taken from publication PMC6627486, “Ipomoeassin F Binds Sec61α to Inhibit Protein Translocation” (Journal of the American Chemical Society, 2019).
